Data on four molecules can be found in patent publication US6933289B2, “Inhibition of irritating side effects associated with use of a topical ophthalmic medication” (Allergan, Inc., priority 2003, dated 2005).

A short description of series [1]: Phase-solubility analysis: association constant between bimatoprost and cyclodextrin or cyclodextrin derivative. In kind it is physicochemical. Conditions: 1:1 complex with bimatoprost, stirred one week at room temperature. How it is done: CD represents the associated complex of the two. […] CD], according to equation 2. [formula]
The association constant between the bimatoprost and four cyclodextrin or cyclodextrin derivatives was determined by running phase-solubility analysis. A series of small glass bottles was set up, each fitted with a screw cap and a magnetic stir bar with increasing concentrations of cyclodextrin or cyclodextrin derivative dissolved in a fixed volume (e.g., 10 mL) of aqueous vehicle (e.g., the formulation minus the drug and the cyclodextrin or cyclodextrin derivative). […] Bottles were then capped and the suspensions were stirred for a week at room temperature to ensure equilibrium. Undissolved drug was removed by centrifugation, followed by filtration through a 0.45 μm filter membrane to obtain a clear solution, free of drug in suspension. The concentration of the solubilized drug in each filtrate sample was determined and drug solubility (y-axis) was plotted against the concentration of the cyclodextrin or cyclodextrin derivative (x-axis). […] In principle, S0 is equivalent to the y intercept (b) of the fitted line, however, in most cases it can more accurately be determined by direct measurement of the solubility rather than indirectly from the fit of data.

The conditions of series [2]: 0.02% bimatoprost, cited from earlier work.

On to 2-Hydroxypropyl β-cyclodextrin, for which, in series [1], the “Association Constant (molar association constant for bimatoprost)” value (shortened to “Association Constant”) is listed as “≈1913 M^−1”.

`CCNC(=O)CCC/C=C\C[C@@H]1[C@@H](/C=C/[C@@H](O)CCc2ccccc2)[C@H](O)C[C@@H]1O` [bimatoprost]: in series [2] (no cyclodextrin), the Hyperemia result is “little hyperemia”. In addition, the Efficacy entry in series [2] is given as “loses efficacy”.

Take `OC[C@H]1O[C@@H]2O[C@H]3[C@H](O)[C@@H](O)[C@@H](O[C@H]4[C@H](O)[C@@H](O)[C@@H](O[C@H]5[C@H](O)[C@@H](O)[C@@H](O[C@H]6[C@H](O)[C@@H](O)[C@@H](O[C@H]7[C@H](O)[C@@H](O)[C@@H](O[C@H]8[C@H](O)[C@@H](O)[C@@H](O[C@H]9[C@H](O)[C@@H](O)[C@@H](O[C@H]1[C@H](O)[C@H]2O)O[C@@H]9CO)O[C@@H]8CO)O[C@@H]7CO)O[C@@H]6CO)O[C@@H]5CO)O[C@@H]4CO)O[C@@H]3CO` [γ-cyclodextrin]: the “Association Constant” value in series [1] is on record as “≈439 M^−1”.

For the molecule Sulfobutyl ether β-cyclodextrin, the “Association Constant” value in series [1] was “≈1464 M^−1”.
